Laboratory results: patent publication US9695155B2, “Herbicidal substituted pyrimidinyloxy benzene compounds” (E. I. DU PONT DE NEMOURS AND COMPANY, priority 2013, dated 2017)

Tests used:
barnyardgrass [1] = assay: Test A preemergence; type: in vivo, Echinochloa crus-galli; settings: for Barnyardgrass plant response rating: 500 g ai/ha
In short: (§1)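 Greenhouse pot test, loam/sand soil. Formulation: non-phytotoxic solvent mix plus surfactant. Pre: directed spray onto soil after sowing. Post: plants at 1–2 leaf, 2–10 cm. Rated visually vs untreated controls at ~10 d, 0 (no effect) to 100 (complete control).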

large (Lg) crabgrass [2] = assay: Test A preemergence; type: in vivo, Digitaria sanguinalis; settings: for Crabgrass, Large plant response rating: 500 g ai/ha
In short: as §1

giant foxtail [3] = assay: Test A preemergence; type: in vivo, Setaria faberii; settings: for Foxtail, Giant plant response rating: 500 g ai/ha
In short: as §1

morningglory [4] = assay: Test A preemergence; type: in vivo, Ipomoea spp.; settings: for Morningglory plant response rating: 500 g ai/ha
In short: as §1

pigweed [5] = assay: Test A preemergence; type: in vivo, Amaranthus retroflexus; settings: for Pigweed plant response rating: 500 g ai/ha
In short: as §1

velvetleaf [6] = assay: Test A preemergence; type: in vivo, Abutilon theophrasti; settings: for Velvetleaf plant response rating: 500 g ai/ha
In short: as §1

wheat [7] = assay: Test A preemergence; type: in vivo, Triticum aestivum; settings: for Wheat plant response rating: 500 g ai/ha
In short: as §1

corn [8] = assay: Test A preemergence; type: in vivo, Zea mays; settings: for Corn plant response rating: 500 g ai/ha
In short: as §1

barnyardgrass [9] = assay: Test A postemergence; type: in vivo, Echinochloa crus-galli
In short: as §1

large (Lg) crabgrass [10] = assay: Test A postemergence; type: in vivo, Digitaria sanguinalis
In short: as §1

giant foxtail [11] = assay: Test A postemergence; type: in vivo, Setaria faberii
In short: as §1

morningglory [12] = assay: Test A postemergence; type: in vivo, Ipomoea spp.
In short: as §1

pigweed [13] = assay: Test A postemergence; type: in vivo, Amaranthus retroflexus
In short: as §1

velvetleaf [14] = assay: Test A postemergence; type: in vivo, Abutilon theophrasti
In short: as §1

wheat [15] = assay: Test A postemergence; type: in vivo, Triticum aestivum
In short: as §1

corn [16] = assay: Test A postemergence; type: in vivo, Zea mays
In short: as §1

rice = assay: Test B flooded paddy test; type: in vivo, Oryza sativa; settings: Flood, 250 g ai/ha; 0 to 100 scale where 0 is no effect and 100 is complete control
In short: (§2)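 Plants were grown to the 2-leaf stage, then pots were flooded to 3 cm above the soil and compounds were applied directly into the paddy water. That depth was held throughout, and after 13 to 15 days in the greenhouse injury was rated visually against controls on a 0–100 scale (0 no effect, 100 complete control).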

sedge, umbrella = assay: Test B flooded paddy test; type: in vivo, Cyperus difformis; settings: Flood, 250 g ai/ha; 0 to 100 scale where 0 is no effect and 100 is complete control
In short: as §2

Heteranthera limosa = assay: Test B flooded paddy test; type: in vivo; settings: Flood, 250 g ai/ha; 0 to 100 scale where 0 is no effect and 100 is complete control
In short: as §2

barnyardgrass [17] = assay: Test B flooded paddy test; type: in vivo, Echinochloa crus-galli; settings: Flood, 250 g ai/ha; 0 to 100 scale where 0 is no effect and 100 is complete control
In short: as §2

[18] = 0 to 100 scale where 0 is no effect and 100 is complete control
[19] = 125 g ai/ha, 0 to 100 scale where 0 is no effect and 100 is complete control
[20] = 500 g ai/ha, 0 to 100 scale where 0 is no effect and 100 is complete control
[21] = 0 to 100 scale, 0 no effect, 100 complete control, approx. 10 days
[22] = 500 g ai/ha, 0 to 100 scale, 0 no effect, 100 complete control

N#Cc1cnn(-c2c(C=O)cccc2Oc2ncc(Cl)cn2)c1 [Compound 237]
70: Plant response rating, Pigweed (pigweed [13]; [20])
80: Pigweed plant response rating (pigweed [5]; [18])
30: Pigweed plant response rating (pigweed [13]; [19]) | Plant response rating, Velvetleaf (velvetleaf [14]; [20])
10: Barnyardgrass plant response rating (barnyardgrass [1]; [18]) | Crabgrass, Large plant response rating (large (Lg) crabgrass [2]; [18]) | Velvetleaf plant response rating (velvetleaf [6]; [18])
20: Velvetleaf plant response rating (velvetleaf [14]; [19])
0: Barnyardgrass plant response rating (0 to 100 scale, 0 is no effect, 100 is complete control) (barnyardgrass [1]; 125 g ai/ha) | Crabgrass, Large plant response rating (0 to 100 scale) (large (Lg) crabgrass [2]; 125 g ai/ha) | Foxtail, Giant plant response rating (0 to 100 scale) (giant foxtail [3]; 125 g ai/ha) | Foxtail, Giant plant response rating (giant foxtail [3]; [18]) | Morningglory plant response rating (0 to 100 scale) (morningglory [4]; 125 g ai/ha) | Morningglory plant response rating (morningglory [4]; [18]) | Pigweed plant response rating (0 to 100 scale) (pigweed [5]; 125 g ai/ha) | Velvetleaf plant response rating (0 to 100 scale) (velvetleaf [6]; 125 g ai/ha) | Wheat plant response rating (0 to 100 scale) (wheat [7]; 125 g ai/ha) | Wheat plant response rating (wheat [7]; [18]) | Corn plant response rating (0 to 100 scale) (corn [8]; 125 g ai/ha) | Corn plant response rating (corn [8]; [18]) | Barnyardgrass plant response rating (barnyardgrass [9]; [19]) | Plant response rating, Barnyardgrass (barnyardgrass [9]; [20]) | Crabgrass, Large plant response rating (large (Lg) crabgrass [10]; [19]) | Plant response rating, Crabgrass, Large (large (Lg) crabgrass [10]; [20]) | Foxtail, Giant plant response rating (giant foxtail [11]; [19]) | Plant response rating, Foxtail, Giant (giant foxtail [11]; [20]) | Morningglory plant response rating (morningglory [12]; [19]) | Plant response rating, Morningglory (morningglory [12]; [20]) | Wheat plant response rating (wheat [15]; [19]) | Plant response rating, Wheat (wheat [15]; [20]) | Corn plant response rating (corn [16]; [19]) | Plant response rating, Corn (corn [16]; [20]) | Plant response rating, Rice (rice) | Plant response rating, Sedge, Umbrella (sedge, umbrella) | Plant response rating, Ducksalad (Heteranthera limosa) | Plant response rating, Barnyardgrass (barnyardgrass [17])

FC(F)(F)c1ccn(-c2ccccc2Sc2ncc(Cl)cn2)n1 [Compound 28]
30: Plant response rating, Pigweed (pigweed [13]; [22]) | Plant response rating, Velvetleaf (velvetleaf [14]; [22])
0: Plant response rating, Barnyardgrass (barnyardgrass [1]; [19]) | Plant response rating, Crabgrass, Large (large (Lg) crabgrass [2]; [19]) | Plant response rating, Foxtail, Giant (giant foxtail [3]; [19]) | Plant response rating, Morningglory (morningglory [4]; [19]) | Morningglory plant response rating (morningglory [4]; [21]) | Plant response rating, Pigweed (pigweed [5]; [19]) | Plant response rating, Velvetleaf (velvetleaf [6]; [19]) | Velvetleaf plant response rating (velvetleaf [6]; [21]) | Plant response rating, Wheat (wheat [7]; [19]) | Wheat plant response rating (wheat [7]; [21]) | Plant response rating, Corn (corn [8]; [19]) | Corn plant response rating (corn [8]; [21]) | Plant response rating, Barnyardgrass (barnyardgrass [9]; [19]) | Plant response rating, Crabgrass, Large (large (Lg) crabgrass [10]; [19]) | Plant response rating, Foxtail, Giant (giant foxtail [11]; [19]) | Plant response rating, Velvetleaf (velvetleaf [14]; [19]) | Plant response rating, Wheat (wheat [15]; [19]) | Plant response rating, Wheat (wheat [15]; [22]) | Plant response rating, Corn (corn [16]; [19]) | Plant response rating, Rice (rice) | Plant response rating, Sedge, Umbrella (sedge, umbrella) | Plant response rating, Barnyardgrass (barnyardgrass [17])
35: Plant response rating, Ducksalad (Heteranthera limosa)
20: Plant response rating, Crabgrass, Large (large (Lg) crabgrass [10]; [22]) | Plant response rating, Corn (corn [16]; [22])
40: Pigweed plant response rating (pigweed [5]; [21])
10: Barnyardgrass plant response rating (barnyardgrass [1]; [21]) | Crabgrass, Large plant response rating (large (Lg) crabgrass [2]; [21]) | Foxtail, Giant plant response rating (giant foxtail [3]; [21]) | Plant response rating, Barnyardgrass (barnyardgrass [9]; [22]) | Plant response rating, Foxtail, Giant (giant foxtail [11]; [22]) | Plant response rating, Morningglory (morningglory [12]; [19]) | Plant response rating, Morningglory (morningglory [12]; [22]) | Plant response rating, Pigweed (pigweed [13]; [19])
